Data on 15 molecules can be found in patent US11442059B2, “Method for treating a chronic itch condition by administering small molecule MrgprX4 antagonists” (The Johns Hopkins University, priority 2017, dated 2022).

Series [1] has as its system 129S1/SvImJ mice. Put plainly: SJS/TEN mouse model (daily oral gavage of causative drug). It counts as in vivo. The conditions noted are these: mouse, in vivo. How it is done: Eight-to-ten week old male mice were orally gavaged with either causative drugs (LTG, allopurinol, oxcarbazepine) suspended in saline or saline once daily. The dosage was based on milligrams per kilogram of animal's body weight as indicated (for example, LTG 50 mg kg^−1 body weight). Skin, eyes, and mucosa, survival, body weight, physical and gross appearances (particularly on the eyes, mucosa and skins) were monitored every day.
The animals were deeply anesthetized with pentobarbital and transcardially perfused with 20 ml 0.1 M cold PBS (pH 7.4) followed with 25 ml of cold 4% paraformaldehyde (PFA). Paw skin, eyelid, spleen, lymph nodes were dissected out. postfixed in 4% PFA for more than two hours, and cryoprotected in a 20% followed by 30% sucrose solution for 24 hours each at 4° C. Tissue samples were embedded in the optimal cutting temperature (OCT) and frozen before being serially cut into 20 μm sections and placed onto slides. Hematoxylin and eosin (H&E) staining was performed using standard procedures according to the manufacturer's instruction VITROVIEW™ H&E Stain Kit). To quantify amount of apoptotic cells, terminal deoxynucleotidyl transferase dUTP nick end labeling (TUNEL) assay, a method for detecting DNA fragmentation that results from apoptotic cells by labeling the terminal end of nucleic acids, was performed by following the protocol of Apo-BrdU DNA Fragmentation Assay Kit (Biovision). To estimate the total cell number in tissue, all nuclei were stained with propidium iodide. Digital photographs were captured under confocal fluorescent microscopy at x200 magnification (Zeiss LSM 700). The number of TUNEL-positive nuclei were counted and reported as a percentage over the number of total nuclei observed in the skin's epidermis layer.

The target in series [2] is T1, MRGPRX4 (Homo sapiens, UniProt Q96LA9). Put plainly: MrgprX4 antagonist assay vs bilirubin (HTRF IP-One inositol phosphate). It counts as cell-based. Also on record: expressed in transfected cells. Conditions: blockade of bilirubin (100 μM) induced signal; test compound typically 10 μM. How it is done:
(§1) Intracellular inositol phosphate levels were determined using a 384-well homogenous time-resolved fluorescence assay (HTRF IP-One®, CisBio International, Bagnols/Ceze, France, Cat #62IPAPEJ) as described by the manufacturer's one-step protocol. Briefly, HEK293 cells stably expressing recombinant human MrgprX4 were harvested and suspended in phenol-red free OptiMEM (ThermoFisher) and plated into 384-well assay plates (Perkin Elmer, Proxiplate-Plus® Cat #6008280) at 15,000 cells/well in a volume of 10 μL/well. These cell plates were then incubated overnight at 37° C. in a humidified CO2 incubator. Test compounds were dissolved in DMSO and were further diluted in Assay Buffer (Tris.HCl 40 mM, NaCl 300 mM, LiCl 350 mM, pH 8) and added to the cells (2 μL addition, final assay concentration typically 10 μM). In this configuration, the assay can detect agonists and inverse agonists. For detection of antagonists, test compound addition was followed by addition of bilirubin (2 μL addition, final assay concentration 100 μM). Regardless of the assay format (agonist/inverse agonist vs. antagonist) plates were then incubated for 1 h, at 37° C., followed by 30 minutes at room temperature. Lysis/detection reagents (6 uL/well) were then added and plates incubated for 1 h at room temperature before reading on an HTRF compatible reader such as a Perkin Elmer EnVision® or BMG Pherastar®.

In series [3] the target is T1, MRGPRX4. The series can be described thus: MrgprX4 inverse agonist assay (HTRF IP-One inositol phosphate). Also noted: expressed in transfected cells. It counts as cell-based. Conditions: HEK293 cells stably expressing recombinant human MrgprX4, final assay concentration typically 10 μM. On the procedure: as §1
On the technique in general: Time-resolved FRET reads energy transfer from a long-lived donor to a nearby acceptor.

Series [4] relates to mice. Put plainly: Acute itch behaviour after injection (scratching bouts). The conditions noted are these: for itch responses in WT versus Cluster KO animals: injection at nape or cheek; for itch elicited in Cluster KO animals: Cluster KO mice; for scratching / itch elicited by injection: WT mice. It is filed as in vivo, mouse.
Series [5] has as its target T1, MRGPRX4. The series can be described thus: Fura 2-AM calcium imaging, EC50 determinations, MRGPRX4 HEK293 cells. It counts as cell-based. Also on record: expressed in transfected cells; whole cells or crude membrane fraction. The conditions noted are these: 10 μM pre-incubated 30 minutes; 50 μM bilirubin. On the procedure: (§2) Cells were imaged in calcium imaging buffer (CIB; 10 mM HEPES, 1.2 mM NaHCO3, 130 mM NaCl, 3 mM KCl, 2.5 mM CaCl2, 0.6 mM MgCl2, 20 mM glucose, and 20 mM sucrose at pH 7.4 and 290-300 mOsm). To monitor changes in intracellular [Ca^2+] ([Ca^2+]i), cells were loaded with either Fura 2-AM (HEK293 cells) or Fluo 4-AM (DRG neurons and mast cells) for 30 min in the dark at 37° C. in CIB just prior to imaging. With Fura 2-AM, emission at 510 nm was monitored from excitation at both 340 nm and 380 nm. With Fluo 4-AM, emission at 520 nm was monitored from excitation at 488 nm. Cells were identified as responding if the intracellular [Ca^2+] rose by either 50% compared to baseline or 50% compared to the [Ca^2+]i change assayed during addition of 50 mM KCl (neurons only). Damaged, detached, high-baseline, and motion-activated cells were excluded from analysis.
(§3) In initial screens, HEK293 cells stably expressing the murine G-protein alpha-subunit Gα15, a unique Gα protein that non-selectively couples a large variety of GPCRs to phospholipase C^30, were plated on poly-D-lysine-coated coverslips and transiently transfected with constructs encoding the MRGRPR of interest. 12-24 h later, cells were loaded with the Fura 2-AM. Unless otherwise specified, compounds were perfused into the imaging chamber for approximately thirty seconds after a baseline period was established. Response was then monitored at 5 s intervals for an additional 60 s.
HEK293 cells stably expressing either MRGPRA1, MRGPRX4, and MRGRPC11 were seeded in poly-D-lysine-coated 96-well plates at 10,000 cells/well. Cells were loaded with Fura 2-AM, washed twice, and maintained in CIB. Haem metabolites were freshly dissolved in DMSO in dim light and then diluted into a buffer comprised of 20 mM Tris and 150 mM NaCl at pH 8.8. Potential changes in pH were evaluated prior to each experiment. EC50 values were determined from dose-responses performed in triplicate, repeated 2-4 times. […]

Series [6] has as its target T2, MrgprA1 (Mus musculus, UniProt Q91WW5).
T2 construct: expressed in transfected cells; whole cells or crude membrane fraction
T2 sequence (Q91WW5 1-304): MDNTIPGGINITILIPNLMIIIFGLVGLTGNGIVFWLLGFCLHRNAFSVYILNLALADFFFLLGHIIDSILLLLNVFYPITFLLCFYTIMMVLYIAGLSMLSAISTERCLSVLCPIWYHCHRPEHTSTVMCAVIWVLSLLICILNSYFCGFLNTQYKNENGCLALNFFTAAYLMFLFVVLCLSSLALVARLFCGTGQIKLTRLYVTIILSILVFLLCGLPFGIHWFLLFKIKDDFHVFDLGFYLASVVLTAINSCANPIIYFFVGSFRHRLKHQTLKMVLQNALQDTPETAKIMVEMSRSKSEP
The series can be described thus: Fura 2-AM calcium imaging, EC50 and IC50 determinations, MRGPRA1 HEK293 cells. It counts as cell-based. Conditions: 10 μM pre-incubated 30 minutes; 50 μM bilirubin. On the procedure:
as §2, §3
HEK293 cells stably expressing either MRGPRA1, MRGPRX4, and MRGRPC11 were seeded in poly-D-lysine-coated 96-well plates at 10,000 cells/well. Cells were loaded with Fura 2-AM, washed twice, and maintained in CIB. Haem metabolites were freshly dissolved in DMSO in dim light and then diluted into a buffer comprised of 20 mM Tris and 150 mM NaCl at pH 8.8. Potential changes in pH were evaluated prior to each experiment. EC50 values were determined from dose-responses performed in triplicate, repeated 2-4 times. To determine potential antagonism by QWF against bilirubin, cells were treated with varying doses of QWF for 1 min in CIB prior to application of agonist.

“Also recorded” adds a separate entry of the source. Starred links: 1 amine or outer side, 2 acyl side, 3 side chain; linkers in the order of their positions; H or OH if unused. Positions of bridges follow the written chain, without caps; N, C: chain ends. Non-standard residues stand in square brackets, D forms with d. Residues, ends and D or L forms follow the SMILES beside them. X1 = CC(=O)NC(C(=O)OC(C(C)C)C(N[*:1])C(=O)[*:2])C(O)C(C)C; PhLac = O=C(O)[CH](O)Cc1ccccc1; NMeT = CN[CH](C(=O)O)[CH](C)O; NMeA = CN[CH](C)C(=O)O; NMeDha = C=C(NC)C(=O)O

T1 sequence (Q96LA9 whole entry): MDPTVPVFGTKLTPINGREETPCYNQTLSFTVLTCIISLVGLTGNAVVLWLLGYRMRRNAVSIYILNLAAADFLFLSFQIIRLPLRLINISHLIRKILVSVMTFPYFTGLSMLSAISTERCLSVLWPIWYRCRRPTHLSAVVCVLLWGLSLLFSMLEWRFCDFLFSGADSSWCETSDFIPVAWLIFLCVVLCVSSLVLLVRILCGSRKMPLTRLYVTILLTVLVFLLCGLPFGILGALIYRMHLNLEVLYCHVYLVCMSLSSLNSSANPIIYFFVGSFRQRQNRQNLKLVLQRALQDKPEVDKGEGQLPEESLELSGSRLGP

In the case of `Oc1ncnc2[nH]ncc12` [allopurinol], the eye manifestation result in series [1] is “can also induce eye manifestation”.

On to `Cc1nc(-c2ccnn2Cc2ccc(Cl)cc2)[nH]c1-c1ccccc1` [compound 2], for which the “Antagonist Activity” value in series [2] is listed as “++++ (a blockade of bilirubin induced signal of at least 85%)”. For the same molecule, the “Inverse Agonist Activity” value in series [3] is “++++ (an activity of at least 3 standard deviations below baseline)”.

For the molecule `C[C@@H](NC(=O)[C@@H](N)Cc1ccc(O)cc1)C(=O)NCC(=O)N(C)[C@@H](Cc1ccccc1)C(=O)NCCO` [DAMGO], the “itch responses in WT versus Cluster KO animals” value in series [4] is given as “comparable itch responses”.

Take lysophosphatidic acid [LPA]: the “itch responses in WT versus Cluster KO animals” value in series [4] is given as “comparable itch responses”.

For the molecule `C=CC1=C(C)c2cc3[n-]c(cc4[n-]c(cc5nc(cc1n2)C(C)=C5C=C)c(C)c4CCC(=O)O)c(CCC(=O)O)c3C.O.[Fe+2]` [hematin], in series [4], the “itch elicited in Cluster KO animals” value is “absent” and the “scratching / itch elicited by injection” value is on record as “elicited itch”.

As to `Nc1nc2ccccc2n1CCOc1ccccc1Cl` [compound 4], the “Antagonist Activity” value in series [2] was “+++ (a blockade of bilirubin induced signal of from 70% to less than 85%)”. For the same molecule, in series [3], the “Inverse Agonist Activity” value was “+++ (an activity of from 2 standard deviations to less than 3 standard deviations below baseline)”.

For `CN1CC[C@]23c4c5ccc(O)c4O[C@H]2[C@@H](O)C=C[C@H]3[C@H]1C5` [morphine], in series [4], the “itch responses in WT versus Cluster KO animals” value was “comparable itch responses”.

Turning to stercobilin, in series [4], the “itch elicited in Cluster KO animals” value is on record as “absent” and the “scratching / itch elicited by injection” value is on record as “elicited itch; also recorded: able to stimulate scratching behavior”.

Consider `O=C(NCc1cc2ccccc2[nH]1)c1cc(-c2ccccn2)nc2ccc(Br)cc12` [compound 3], for which the “Antagonist Activity” value in series [2] is recorded as “++++ (a blockade of bilirubin induced signal of at least 85%)”. The “Inverse Agonist Activity” value in series [3] is recorded as “+++ (an activity of from 2 standard deviations to less than 3 standard deviations below baseline)”.

For the molecule `C=C1C(=O)NC(C)C(=O)N(C)C(C)C(=O)NC(C(OC(=O)C(NC(C)=O)C(O)C(C)C)C(C)C)C(=O)N(C)C(C(C)OC)C(=O)OC(C)C(NC(C)=O)C(=O)OC(Cc2ccccc2)C(=O)N1C` (stereo not shown) [YM-254890] (Ac-T[PhLac][NMeDha]A[NMeA][X1][NMeT](Me); ester 1-C; configuration not given here), in series [5], the “effect on bilirubin-induced calcium responses, MRGPRX4” value is “inhibited”. Further, the “effect on bilirubin-induced calcium responses, MRGPRA1” value in series [6] is “abolished”.

Take `CCC1=C(C)C(Cc2[nH]c(Cc3[nH]c(CC4NC(=O)C(C)=C4CC)c(C)c3CCC(=O)O)c(CCC(=O)O)c2C)NC1=O` (stereo not shown) [urobilinogen]: in series [4], the “scratching / itch elicited by injection” value was “able to stimulate scratching behavior”.

Regarding `C=CC1=C(C)/C(=C/C2=NC(=C\c3[nH]c(/C=C4\NC(=O)C(C)=C4C=C)c(C)c3CCC(=O)O)/C(CCC(=O)O)=C2C)NC1=O` [biliverdin], the “scratching / itch elicited by injection” value in series [4] is given as “did not induce scratching”.

Regarding `O=C(O)COCCN1CCN(C(c2ccccc2)c2ccc(Cl)cc2)CC1` (stereo not shown) [cetirizine], in series [4] (30 mg/kg, i.p., thirty minutes prior to bilirubin), the “effect on bilirubin-induced scratching” value is reported as “failed to temper scratching behavior”.

For FMRF: an MRGPRA1 agonist, in series [4], the “scratching / itch elicited by injection” value is reported as “caused itch”.

Regarding `Cc1c(C(=O)NCc2ccccc2C(F)(F)F)ncn1Cc1ccc(Cl)cc1` [compound 1], the “Antagonist Activity” value in series [2] is recorded as “++++ (a blockade of bilirubin induced signal of at least 85%)”. Also, the “Inverse Agonist Activity” value in series [3] is reported as “++++ (an activity of at least 3 standard deviations below baseline)”.
